Test results published in ChEMBL document CHEMBL1150830, “Polychlorinated acetamides from the cyanobacterium Microcoleus lyngbyaceus” (J Nat Prod, 2001).
The source made the active and inactive calls. The rule behind the calls is not given here.

Tested on: Human immunodeficiency virus 1
Test: Antiviral activity against HIV1 infected in human H9 cells assessed as inhibition of virus-induced cytopathic effect by tetrazolium-based method
Assay type: functional, organism-based

Structure (SMILES) | Activity
CC(=O)NC(CCCC#CCC(Cl)Cl)CCCC#CCC(Cl)(Cl)Cl (configuration not stated) | inactive
CC(=O)NC(CCCC#CCC(Cl)(Cl)Cl)CCCC#CCC(Cl)(Cl)Cl | inactive
